Values of other authors as cited in patent US20250114332A1 (LABORATORIOS SILANES S.A. DE C.V., priority 2023, published 2025).
Where two headings read alike, the source gives them in different places.

Settings: drug substance

| SMILES | Biopharmaceutical classification | Biopharmaceutical classification (listed as acetaminophen) |
| --- | --- | --- |
| CC(=O)Nc1ccc(O)cc1 [Acetaminophen, N-(4-hydroxyphenyl) acetamide] | Group III (high solubility and low permeability) | group III |
| Cc1ccc(-c2cc(C(F)(F)F)nn2-c2ccc(S(N)(=O)=O)cc2)cc1 [Celecoxib] | Belongs to group II (high permeability and low |  |
